The text below walks through data of patent US12139492B2 (Endotarget Inc., priority 2021, dated 2024).

Where two headings read alike, the source gives them in different places.

Assay [1] has as its target T1, BTK (Homo sapiens, UniProt Q06187). Put plainly: BTK degradation, DC50 and Dmax of Table 1 (cell line not given). The class given is cell-based. Also on record: endogenous in cells. To be noted: for DC50: concentration giving 50% reduction of BTK expression level.
In another assay the test system is JeKo-1 cells. Nature of the assay: Antiproliferative effect, MTS cell viability assay, JeKo-1 cells. The class given is cell-based. To be noted: JeKo-1 mantle cell lymphoma cells, read-out: IC50 (anti-proliferation) JeKO-1 cells. The gist of the method: (§1)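 Steps: seed B-cell lymphoma line; add compound at 0, 0.001, 0.01, 0.1, 1 or 10 μM; incubate 72 h; add MTS and read reduced tetrazolium (formazan) absorbance at 490 nm.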
A general note: Tetrazolium dyes change colour on reduction, which living cells bring about.

The test system of a further assay is Mino cells. Put plainly: Antiproliferative effect, MTS cell viability assay, Mino cells. The class given is cell-based. Particulars: Mino mantle cell lymphoma cells, read-out: IC50 (anti-proliferation) Mino cells. The gist of the method: as §1
Assay [2] has as its target T1, BTK. Put plainly: Degradation of BTK protein in Namalwa cells (Western blot; DC50, Dmax). Particulars: for DC50: read-out: DC50 (BTK degradation), concentration giving 50% reduction of BTK expression level. On the technique in general: In western blotting, separated proteins are transferred to a membrane and probed.

T1 sequence (Q06187 whole entry): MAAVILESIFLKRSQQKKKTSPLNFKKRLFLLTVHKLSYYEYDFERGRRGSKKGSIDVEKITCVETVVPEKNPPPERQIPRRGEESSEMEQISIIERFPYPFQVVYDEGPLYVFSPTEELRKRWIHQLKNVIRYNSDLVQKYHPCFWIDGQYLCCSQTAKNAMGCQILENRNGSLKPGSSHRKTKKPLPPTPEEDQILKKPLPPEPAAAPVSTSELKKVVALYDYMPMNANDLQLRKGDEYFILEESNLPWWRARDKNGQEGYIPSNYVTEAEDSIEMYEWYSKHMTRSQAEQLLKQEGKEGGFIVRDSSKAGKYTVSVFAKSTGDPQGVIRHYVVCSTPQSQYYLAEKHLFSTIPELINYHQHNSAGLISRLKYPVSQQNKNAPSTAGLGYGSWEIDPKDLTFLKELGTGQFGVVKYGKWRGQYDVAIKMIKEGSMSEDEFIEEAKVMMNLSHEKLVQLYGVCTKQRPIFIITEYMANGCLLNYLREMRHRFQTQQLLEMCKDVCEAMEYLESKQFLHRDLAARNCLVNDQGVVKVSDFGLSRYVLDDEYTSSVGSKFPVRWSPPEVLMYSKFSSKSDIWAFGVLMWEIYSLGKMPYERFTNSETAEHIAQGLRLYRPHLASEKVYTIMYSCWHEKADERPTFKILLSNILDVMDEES

In general, DC50 refers to the midpoint of the concentration-degradation curve. In the case of “3-(5-(4-(2-(2-(3-(4-amino-3-(4- phenoxyphenyl)-1H-pyrazolo[3,4- d]pyrimidin-1-yl)piperidin-1- yl)ethoxy)ethyl)piperidin-1-yl)-1- oxoisindolin-2-yl)piperidine-2,6- dione [Compound 24]”, on BTK [1], the “Dmax (BTK degradation)” value is given as “A (A >90%)” and the DC50 is 10 to 50 nM. In the assay on JeKo-1 cells, the IC50 fell in the range of 1000 to 10000 nM. The IC50 in the assay on Mino cells was in the range of 1000 to 10000 nM.
By Dmax is commonly meant the greatest extent of degradation seen. Take `Nc1ncnc2c1c(-c1ccc(Oc3ccccc3)cc1)nn2C1CCCN(CCOCCOCCN2CCN(c3ccc4c(c3)C(=O)N(C3CCC(=O)NC3=O)C4=O)CC2)C1` (stereo not shown) [Compound 3, 5-(4-(2-(2-(2-(3-(4-amino-3-(4-phenoxyphenyl)-1H-pyrazolo[3,4-d]pyrimidin-1-yl)piperidin-1-yl)ethoxy)ethoxy)ethyl)piperazin-1-yl)-2-(2,6-dioxopiperidin-3-yl)isoindoline-1,3-dione]: on BTK [1], the Dmax was over 90% and the DC50 is under 10 nM. Further, the IC50 in the assay with JeKo-1 cells (Homo sapiens) was 1000 to 10000 nM. The IC50 in the assay with Mino cells (Homo sapiens, MINO) lay within 1000 to 10000 nM.
At BTK [1], `Nc1ncnc2c1c(-c1ccc(Oc3ccccc3)cc1)nn2C1CCCN(CCOCCOCCN2CCN(c3ccc4c(c3)CN(C3CCC(=O)NC3=O)C4=O)CC2)C1` (stereo not shown) [Compound 4, 3-(5-(4-(2-(2-(2-(3-(4-amino-3-(4-phenoxyphenyl)-1H-pyrazolo[3,4-d]pyrimidin-1-yl)piperidin-1-yl)ethoxy)ethoxy)ethyl)piperazin-1-yl)-1-oxoisoindolin-2-yl)piperidine-2,6-dione] displayed a Dmax of over 90% and a DC50 of under 10 nM. In addition, in the assay with JeKo-1 cells (Homo sapiens), the IC50 lay within 1000 to 10000 nM. For the same compound, the IC50 with Mino cells (Homo sapiens, MINO) lay within 1000 to 10000 nM.
Compound `Nc1ncnc2c1c(-c1ccc(Oc3ccccc3)cc1)nn2C1CCN(CCOCCN2CCN(c3ccc4c(c3)C(=O)N(C3CCC(=O)NC3=O)C4=O)CC2)CC1` (stereo not shown) [Compound 5, 5-(4-(2-(2-(4-(4-amino-3-(4-phenoxyphenyl)-1H-pyrazolo[3,4-d]pyrimidin-1-yl)piperidin-1-yl)ethoxy)ethyl)piperazin-1-yl)-2-(2,6-dioxopiperidin-3-yl)isoindoline-1,3-dione] had a Dmax at BTK [1] of over 90%. This compound showed a DC50 on BTK [1] of 10 to 50 nM. The IC50 with JeKo-1 cells (Homo sapiens) lay within 1000 to 10000 nM; in the assay on Mino cells (Homo sapiens, MINO) it was 1000 to 10000 nM.
On to `Nc1ncnc2c1c(-c1ccc(Oc3ccccc3)cc1)nn2C1CCN(CCOCCN2CCN(c3ccc4c(c3)CN(C3CCC(=O)NC3=O)C4=O)CC2)CC1` (stereo not shown) [Compound 6, 3-(5-(4-(2-(2-(4-(4-amino-3-(4-phenoxyphenyl)-1H-pyrazolo[3,4-d]pyrimidin-1-yl)piperidin-1-yl)ethoxy)ethyl)piperazin-1-yl)-1-oxoisoindolin-2-yl)piperidine-2,6-dione], for which, on BTK [1], the Dmax is over 90% and the DC50 was in the range of 10 to 50 nM. Moreover, in the assay with JeKo-1 cells (Homo sapiens), the IC50 is under 1000 nM. The IC50 in the assay on Mino cells (Homo sapiens, MINO) is under 1000 nM.
Take `Nc1ncnc2c1c(-c1ccc(Oc3ccccc3)cc1)nn2C1CCCN(CCOCCN2CCN(c3ccc4c(c3)C(=O)N(C3CCC(=O)NC3=O)C4=O)CC2)C1` (stereo not shown) [Compound 7, 5-(4-(2-(2-(3-(4-amino-3-(4-phenoxyphenyl)-1H-pyrazolo[3,4-d]pyrimidin-1-yl)piperidin-1-yl)ethoxy)ethyl)piperazin-1-yl)-2-(2,6-dioxopiperidin-3-yl)isoindoline-1,3-dione]: on BTK [1], the Dmax is over 75% and the DC50 lay in the range of 10 to 50 nM. Further, the IC50 with JeKo-1 cells (Homo sapiens) lay within 1000 to 10000 nM. In the assay on Mino cells (Homo sapiens, MINO), the IC50 was in the range of 1000 to 10000 nM.
At BTK [1], `Nc1ncnc2c1c(-c1ccc(Oc3ccccc3)cc1)nn2C1CCCN(CCOCCN2CCN(c3ccc4c(c3)CN(C3CCC(=O)NC3=O)C4=O)CC2)C1` (stereo not shown) [Compound 8, 3-(5-(4-(2-(2-(3-(4-amino-3-(4-phenoxyphenyl)-1H-pyrazolo[3,4-d]pyrimidin-1-yl)piperidin-1-yl)ethoxy)ethyl)piperazin-1-yl)-1-oxoisoindolin-2-yl)piperidine-2,6-dione] returned a Dmax of over 90%. This compound also returned a DC50 on BTK [1] of 10 to 50 nM. For the same compound, the IC50 lay within 1000 to 10000 nM with JeKo-1 cells (Homo sapiens) and 1000 to 10000 nM with Mino cells (Homo sapiens, MINO).
At BTK [1], `Nc1ncnc2c1c(-c1ccc(Oc3ccccc3)cc1)nn2C1CCN(CCOCCOCCN2CCC(c3ccc4c(c3)C(=O)N(C3CCC(=O)NC3=O)C4=O)CC2)CC1` (stereo not shown) [Compound 9, 5-(1-(2-(2-(2-(4-(4-amino-3-(4-phenoxyphenyl)-1H-pyrazolo[3,4-d]pyrimidin-1-yl)piperidin-1-yl)ethoxy)ethoxy)ethyl)piperidin-4-yl)-2-(2,6-dioxopiperidin-3-yl)isoindoline-1,3-dione] yielded a Dmax of over 90%. Further, at BTK [1], the DC50 is under 10 nM. Further, the IC50 in the assay with JeKo-1 cells (Homo sapiens) lay in the range of 1000 to 10000 nM; in the assay with Mino cells (Homo sapiens, MINO), 1000 to 10000 nM.
For `Nc1ncnc2c1c(-c1ccc(Oc3ccccc3)cc1)nn2C1CCN(CCOCCOCCN2CCC(c3ccc4c(c3)CN(C3CCC(=O)NC3=O)C4=O)CC2)CC1` (stereo not shown) [Compound 10, 3-(5-(1-(2-(2-(2-(4-(4-amino-3-(4-phenoxyphenyl)-1H-pyrazolo[3,4-d]pyrimidin-1-yl)piperidin-1-yl)ethoxy)ethoxy)ethyl)piperidin-4-yl)-1-oxoisoindolin-2-yl)piperidine-2,6-dione], at BTK [1], the Dmax was over 90% and the DC50 is under 10 nM. Also, the IC50 in the assay on JeKo-1 cells (Homo sapiens) lay within 1000 to 10000 nM. Moreover, the IC50 in the assay on Mino cells (Homo sapiens, MINO) was under 1000 nM.
The matching figures for `Nc1ncnc2c1c(-c1ccc(Oc3ccccc3)cc1)nn2C1CCN(CCOCCN2CCC(c3ccc4c(c3)C(=O)N(C3CCC(=O)NC3=O)C4=O)CC2)CC1` (stereo not shown) [Compound 11, 5-(1-(2-(2-(4-(4-amino-3-(4-phenoxyphenyl)-1H-pyrazolo[3,4-d]pyrimidin-1-yl)piperidin-1-yl)ethoxy)ethyl)piperidin-4-yl)-2-(2,6-dioxopiperidin-3-yl)isoindoline-1,3-dione]: over 90%, 10 to 50 nM, 1000 to 10000 nM and 1000 to 10000 nM.
On BTK [1], `Nc1ncnc2c1c(-c1ccc(Oc3ccccc3)cc1)nn2C1CCN(CCOCCN2CCC(c3ccc4c(c3)CN(C3CCC(=O)NC3=O)C4=O)CC2)CC1` (stereo not shown) [Compound 12, 3-(5-(1-(2-(2-(4-(4-amino-3-(4-phenoxyphenyl)-1H-pyrazolo[3,4-d]pyrimidin-1-yl)piperidin-1-yl)ethoxy)ethyl)piperidin-4-yl)-1-oxoisoindolin-2-yl)piperidine-2,6-dione] came in with a Dmax of over 90% and a DC50 of 10 to 50 nM. Further, the IC50 in the assay with JeKo-1 cells (Homo sapiens) was under 1000 nM. In addition, the IC50 in the assay with Mino cells (Homo sapiens, MINO) was under 1000 nM.
At BTK [1], `Nc1ncnc2c1c(-c1ccc(Oc3ccccc3)cc1)nn2C1CCCN(CCOCCOCCN2CCC(c3ccc4c(c3)C(=O)N(C3CCC(=O)NC3=O)C4=O)CC2)C1` (stereo not shown) [Compound 13, 5-(1-(2-(2-(2-(3-(4-amino-3-(4-phenoxyphenyl)-1H-pyrazolo[3,4-d]pyrimidin-1-yl)piperidin-1-yl)ethoxy)ethoxy)ethyl)piperidin-4-yl)-2-(2,6-dioxopiperidin-3-yl)isoindoline-1,3-dione] had a Dmax of over 75% and a DC50 of 10 to 50 nM. Moreover, the IC50 in the assay on JeKo-1 cells (Homo sapiens) lay in the range of 1000 to 10000 nM. The IC50 in the assay with Mino cells (Homo sapiens, MINO) lay in the range of 1000 to 10000 nM.
`Nc1ncnc2c1c(-c1ccc(Oc3ccccc3)cc1)nn2C1CCCN(CCOCCOCCN2CCC(c3ccc4c(c3)CN(C3CCC(=O)NC3=O)C4=O)CC2)C1` (stereo not shown) [Compound 14, 3-(5-(1-(2-(2-(2-(3-(4-amino-3-(4-phenoxyphenyl)-1H-pyrazolo[3,4-d]pyrimidin-1-yl)piperidin-1-yl)ethoxy)ethoxy)ethyl)piperidin-4-yl)-1-oxoisoindolin-2-yl)piperidine-2,6-dione]: the Dmax on BTK [1] is over 90%. The DC50 at BTK [1] is 10 to 50 nM. The IC50 in the assay with JeKo-1 cells (Homo sapiens) was 1000 to 10000 nM; in the assay on Mino cells (Homo sapiens, MINO) it was 1000 to 10000 nM.
On BTK [1], `Nc1ncnc2c1c(-c1ccc(Oc3ccccc3)cc1)nn2C1CCCN(CCOCCN2CCC(c3ccc4c(c3)C(=O)N(C3CCC(=O)NC3=O)C4=O)CC2)C1` (stereo not shown) [Compound 15, 5-(1-(2-(2-(3-(4-amino-3-(4-phenoxyphenyl)-1H-pyrazolo[3,4-d]pyrimidin-1-yl)piperidin-1-yl)ethoxy)ethyl)piperidin-4-yl)-2-(2,6-dioxopiperidin-3-yl)isoindoline-1,3-dione] displayed a Dmax of over 75% and a DC50 of 10 to 50 nM. Moreover, the IC50 with JeKo-1 cells (Homo sapiens) is 1000 to 10000 nM. Moreover, in the assay with Mino cells (Homo sapiens, MINO), the IC50 fell in the range of 1000 to 10000 nM.
Take `Nc1ncnc2c1c(-c1ccc(Oc3ccccc3)cc1)nn2C1CCN(CC2CCN(CCCN3CCN(c4ccc(N5CCC(=O)NC5=O)cc4)CC3)CC2)CC1` [Compound 582, 1-(4-(4-(3-(4-((4-(4-amino-3-(4-phenoxyphenyl)-1H-pyrazolo[3,4-d]pyrimidin-1-yl)piperidin-1-yl)methyl)piperidin-1-yl)propyl)piperazin-1-yl)phenyl)dihydropyrimidine-2,4(1H,3H)-dione]: the IC50 in the assay with JeKo-1 cells (Homo sapiens) was 1000 to 10000 nM; in the assay on Mino cells (Homo sapiens, MINO) it was under 1000 nM. Also, on BTK [2] (cell line not given), the DC50 was 10 to 50 nM. Besides, the Dmax at BTK [2] (read-out: Dmax (BTK degradation)) was over 90%.
With “(7S)-7-(1-((1-(4-(2-(2,6- dioxopiperidin-3-yl)-1,3- dioxoisoindolin-5-yl)piperazine-1- carbonyl)piperidin-1- yl)methyl)piperidin-4-yl)-2-(4- phenoxyphenyl)-4,5,6,7- tetrahydropyrazolo[1,5-a]pyrimidine- 3-carboxamide [Compound 397]”, the IC50 in the assay with JeKo-1 cells was 1000 to 10000 nM. The IC50 in the assay on Mino cells is over 10000 nM. Besides, at BTK [2] (cell line not given), the “Dmax (BTK degradation)” value is listed as “B (B >75%)” and the DC50 is over 50 nM.
